The text below walks through data of US11572362B2, “Pyrrolo[1,2-b]pyridazine derivatives” (Gilead Sciences, Inc., priority 2018, dated 2023).

The target in assay [1] is IRAK4 (Homo sapiens (Human), UniProt Q9NWZ3). As to the kind of experiment: IRAK4 Biochemical Assay (TR-FRET/HTRF). To be noted: IRAK4 enzyme 0.75 nM, 500 μM ATP, 2 μM STK1 peptide, 120 min. On the procedure:
IRAK4 Biochemical Assay Procedure:
IRAK4 enzyme (Carna Biosciences, Chuo-ku, Kobe, Japan) activity was measured by detecting phosphorylated peptide substrate formation using an antibody against the phosphorylated peptide substrate. This is a time-resolved fluorescence resonance energy transfer (TR-FRET) immunoassay, based on the STK1 KinEASE Assay (Cisbio, Bedford, Mass.). The assay was designed as a simple two-step, endpoint assay (a 5 μl enzyme reaction followed by 5 μl stop and detect Solution) performed in ProxiPlate-384 Plus plates (Perkin Elmer, Waltham, Mass.). Staurosporine, a non-selective kinase inhibitor was used as a positive control. Compounds diluted in DMSO were spotted into 384 well plates using a Labcyte® Echo 550 Liquid Handling System prior to addition of IRAK4 enzyme and peptide substrate. Reaction solutions were delivered using a Multi-Flo (Bio-Tek Instruments). The enzyme and peptide solution was incubated with compound for 15 minutes at room temp before the reaction was initiated by the addition of ATP. The standard 5 μl reaction mixture contained 500 μM ATP, 2 μM peptide (STK1 Peptide), 0.75 nM of IRAK4 in reaction buffer (50 mM HEPES, pH 7.0, 0.02% NaN3, 0.01% BSA, 0.1 mM Orthovanadate, 5 mM MgCl2, 0.025% NP-40, 1 mM DTT). After 120 min of incubation at room temperature, 5 μl of Stop and Detect Solution (1:100 Cryptate labeled anti-phosphorylated peptide antibody solution and 125 nM Tracer in a 50 mM HEPES pH 7.0 detection buffer containing sufficient EDTA) was added. The plate was then further incubated for 60 minutes at room temperature and read on Envision 2103 Multilabeled reader (PerkinElmer) with excitation/emission/FRET emission at 340 nm/615 nm/665 nm, respectively. Fluorescence intensities at 615 nm and 665 nm emission wavelengths were expressed as a ratio (665 nm/615 nm). Percentage of inhibition was calculated as below: % Inhibition=100×(RatioSample−Ratio0% Inhibition)/(Ratio100% Inhibition−Ratio0% Inhibition)
The 0% inhibition value comes from control wells lacking inhibitor. The 100% inhibition value comes from control wells containing a saturating amount of known inhibitor staurosporine.
(In general: Time-resolved FRET reads energy transfer from a long-lived donor to a nearby acceptor.)

Assay [2] deals with TNFα. As to the kind of experiment: IRAK4 Monocyte TNFα Cell Based Assay. To be noted: Monocyte; cryopreserved human monocytes, 50 pg/ml LPS, compound 1 hour pre-treatment, 4 hours stimulation, TNFα by TR-FRET. On the procedure:
IRAK4 Monocyte TNFα Cell Based Assay Procedure:
The cell suspension was then plated at a density of 5,000 cells/well onto black 384 well Greiner clear bottom plates. Plates were pre-spotted with test compounds and serially diluted in DMSO where 40 nL/well were delivered using the Echo 550 acoustic liquid dispenser (Labcyte®) for a final DMSO concentration of 0.1%. Plated cells were treated with compound for 1 hour at 37° C. Cells were then stimulated with 50 pg/ml of LPS (Sigma) excluding outside columns of plate used for unstimulated cell control wells. Cells were incubated for an additional 4 hours at 37° C. Cells were then spun out of the media and 5 μl of sample were taken and analyzed for total TNFα content using the TR-FRET Human TNFα detection system (CisBio). This system utilizes two labeled antibodies (cryptate and XL665) that bind to two different epitopes of the TNFα molecule and produce FRET signal proportional to the concentration of TNFα in the sample. Detection antibodies are mixed 50:50 and 5 μL were dispensed into each well. Plates were covered with clear seals and incubated at room temp overnight. The following morning plates were read using an Envision 2103 Multilabeled reader (PerkinElmer) with excitation/emission/FRET emission at 340 nm/615 nm/665 nm, respectively. Fluorescence intensities at 615 nm and 665 nm emission wavelengths were expressed as a ratio (665 nm/615 nm). Percent of control was calculated as follows: % Control=100×(RatioSample−Ratio0% Stimulation)/(Ratio100% Stimulation−Ratio0% Stimulation)
where unstimulated cells (0% stimulation) were the negative control and stimulated cells (100% stimulation) were used as the positive control.

Sequence of IRAK4 (Q9NWZ3 whole entry): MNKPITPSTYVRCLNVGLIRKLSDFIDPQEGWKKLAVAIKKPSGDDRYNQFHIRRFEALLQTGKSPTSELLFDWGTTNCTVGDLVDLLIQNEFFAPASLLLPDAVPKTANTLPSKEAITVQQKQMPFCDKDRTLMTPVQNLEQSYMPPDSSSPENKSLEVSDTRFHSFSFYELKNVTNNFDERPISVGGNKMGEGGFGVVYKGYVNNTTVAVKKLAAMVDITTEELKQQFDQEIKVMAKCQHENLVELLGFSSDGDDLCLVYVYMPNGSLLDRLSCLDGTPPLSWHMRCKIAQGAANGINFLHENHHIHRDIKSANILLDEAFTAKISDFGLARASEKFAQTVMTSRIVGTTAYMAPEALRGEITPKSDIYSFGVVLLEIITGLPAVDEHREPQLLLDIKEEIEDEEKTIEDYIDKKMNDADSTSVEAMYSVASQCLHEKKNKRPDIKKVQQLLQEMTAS

Consider `CC(C)(O)[C@H](F)CNC(=O)c1cnc(-c2ccc3cc(C#N)cnn23)cc1N[C@H]1CC[C@H](n2ccc(C(F)F)n2)CC1` [Compound 23, 6-(3-cyanopyrrolo[1,2-b]pyridazin-7-yl)-4-(((1r,4R)-4-(3-(difluoromethyl)-1H-pyrazol-1-yl)cyclohexyl)amino)-N-((R)-2-fluoro-3-hydroxy-3-methylbutyl)nicotinamide], for which, in assay [1], inhibition was half-maximal at 1 nM (IC50). In addition, the concentration for a half-maximal effect (EC50) – broadly, the midpoint of the concentration-response curve – in assay [2] was 38 nM.
Taken in the same sequence, the figures for `CC(C)(O)[C@H](F)CNC(=O)c1cnc(-c2ccc3cc(C#N)cnn23)cc1N[C@H]1CC[C@H](c2nnc(C3CC3)o2)CC1` [Compound 41, 6-(3-cyanopyrrolo[1,2-b]pyridazin-7-yl)-4-(((1r,4R)-4-(5-cyclopropyl-1,3,4-oxadiazol-2-yl)cyclohexyl)amino)-N-((R)-2-fluoro-3-hydroxy-3-methylbutyl)nicotinamide] were under 1 nM and 38 nM.
For the compound `CC(C)(O)[C@H](F)CNC(=O)c1cnc(-c2ccc3cc(C#N)cnn23)cc1N[C@H]1CC[C@@H](c2cn[nH]c2)CC1` [Compound 2, 4-(((1s,4S)-4-(1H-pyrazol-4-yl)cyclohexyl)amino)-6-(3-cyanopyrrolo[1,2-b]pyridazin-7-yl)-N-((R)-2-fluoro-3-hydroxy-3-methylbutyl)nicotinamide], the IC50 (usually the concentration at which inhibition is half-maximal) in assay [1] is under 1 nM. Further, in assay [2], the EC50 came to 66 nM.
On to `Cc1nc([C@H]2CC[C@H](Nc3cc(-c4ccc5cc(C#N)cnn45)ncc3C(=O)NC[C@@H](F)C(C)(C)O)CC2)no1` [Compound 44, 6-(3-cyanopyrrolo[1,2-b]pyridazin-7-yl)-N-((R)-2-fluoro-3-hydroxy-3-methylbutyl)-4-(((1r,4R)-4-(5-methyl-1,2,4-oxadiazol-3-yl)cyclohexyl)amino)nicotinamide], for which the IC50 in assay [1] is under 1 nM. Further, the EC50 in assay [2] was 28 nM.
The corresponding values for `Cc1nnc(C23CCC(Nc4cc(-c5ccc6cc(C#N)cnn56)ncc4C(=O)NC[C@@H](F)C(C)(C)O)(CC2)CC3)o1` [Compound 60, (R)-6-(3-cyanopyrrolo[1,2-b]pyridazin-7-yl)-N-(2-fluoro-3-hydroxy-3-methylbutyl)-4-((4-(5-methyl-1,3,4-oxadiazol-2-yl)bicyclo[2.2.2]octan-1-yl)amino)nicotinamide] are under 1 nM and 15 nM.
In assay [1], `CC(C)(O)[C@H](F)CNC(=O)c1cnc(-c2ccc3cc(C#N)cnn23)cc1N[C@H]1CC[C@H](c2ncn(C(F)F)n2)CC1` [Compound 22, 6-(3-cyanopyrrolo[1,2-b]pyridazin-7-yl)-4-(((1r,4R)-4-(1-(difluoromethyl)-1H-1,2,4-triazol-3-yl)cyclohexyl)amino)-N-((R)-2-fluoro-3-hydroxy-3-methylbutyl)nicotinamide] showed an IC50 of 2 nM. In addition, the EC50 in assay [2] was 67 nM.
As for `CC(C)(O)[C@H](F)CNC(=O)c1cnc(-c2ccc3cc(C#N)cnn23)cc1NC12CCC(c3nnc(C(F)F)o3)(CC1)OC2` [Compound 65, (R)-6-(3-cyanopyrrolo[1,2-b]pyridazin-7-yl)-4-((1-(5-(difluoromethyl)-1,3,4-oxadiazol-2-yl)-2-oxabicyclo[2.2.2]octan-4-yl)amino)-N-(2-fluoro-3-hydroxy-3-methylbutyl)nicotinamide], the IC50 in assay [1] is 1 nM. Also, the EC50 in assay [2] was 23 nM.
In turn, `CC(C)(O)[C@H](F)CNC(=O)c1cnc(-c2ccc3cc(C#N)cnn23)cc1N[C@H]1CC[C@H](c2cccnc2)CC1` [Compound 55, 6-(3-cyanopyrrolo[1,2-b]pyridazin-7-yl)-N-((R)-2-fluoro-3-hydroxy-3-methylbutyl)-4-(((1r,4R)-4-(pyridin-3-yl)cyclohexyl)amino)nicotinamide] had an IC50 in assay [1] of under 1 nM. In addition, the EC50 in assay [2] came to 25 nM.
`CC(C)(O)[C@H](F)CNC(=O)c1cnc(-c2ccc3cc(C#N)cnn23)cc1N[C@H]1CC[C@H](c2cnn(C3CC3)c2)CC1` [Compound 14, 6-(3-cyanopyrrolo[1,2-b]pyridazin-7-yl)-4-(((1r,4R)-4-(1-cyclopropyl-1H-pyrazol-4-yl)cyclohexyl)amino)-N-((R)-2-fluoro-3-hydroxy-3-methylbutyl)nicotinamide] returned an IC50 in assay [1] of 1 nM. Besides, in assay [2], the EC50 was 53 nM.
In assay [1], `CC(C)(O)[C@H](F)CNC(=O)c1cnc(-c2ccc3cc(C#N)cnn23)cc1N[C@H]1CC[C@H](c2cn(C(F)F)nn2)CC1` [Compound 18, 6-(3-cyanopyrrolo[1,2-b]pyridazin-7-yl)-4-(((1r,4R)-4-(1-(difluoromethyl)-1H-1,2,3-triazol-4-yl)cyclohexyl)amino)-N-((R)-2-fluoro-3-hydroxy-3-methylbutyl)nicotinamide] yielded an IC50 of 1 nM. The EC50 in assay [2] was 27 nM.
Compound `CC(C)(O)[C@H](F)CNC(=O)c1cnc(-c2ccc3cc(C#N)cnn23)cc1N[C@H]1CC[C@H](c2cnn(CC(F)F)c2)CC1` [Compound 5, 6-(3-cyanopyrrolo[1,2-b]pyridazin-7-yl)-4-(((1r,4R)-4-(1-(2,2-difluoroethyl)-1H-pyrazol-4-yl)cyclohexyl)amino)-N-((R)-2-fluoro-3-hydroxy-3-methylbutyl)nicotinamide] yielded an IC50 in assay [1] of under 1 nM. Moreover, the EC50 in assay [2] was 22 nM.
Taken in the same sequence, the figures for `CC(C)(O)[C@H](F)CNC(=O)c1cnc(-c2ccc3cc(C#N)cnn23)cc1N[C@H]1CC[C@H](n2cnc(C(F)F)n2)CC1` [Compound 36, 6-(3-cyanopyrrolo[1,2-b]pyridazin-7-yl)-4-(((1r,4R)-4-(3-(difluoromethyl)-1H-1,2,4-triazol-1-yl)cyclohexyl)amino)-N-((R)-2-fluoro-3-hydroxy-3-methylbutyl)nicotinamide] were under 1 nM and 14 nM.
In assay [1], `CC(C)(O)[C@H](F)CNC(=O)c1cnc(-c2ccc3cc(C#N)cnn23)cc1N[C@H]1CC[C@H](c2ccccn2)CC1` [Compound 54, 6-(3-cyanopyrrolo[1,2-b]pyridazin-7-yl)-N-((R)-2-fluoro-3-hydroxy-3-methylbutyl)-4-(((1r,4R)-4-(pyridin-2-yl)cyclohexyl)amino)nicotinamide] came in with an IC50 of under 1 nM. Moreover, the EC50 in assay [2] came out at 18 nM.
Taken in the same sequence, the figures for `CC(C)(O)[C@H](F)CNC(=O)c1cnc(-c2ccc3cc(C#N)cnn23)cc1N[C@H]1CC[C@H](c2cn(C3CC3)nn2)CC1` [Compound 20, 6-(3-cyanopyrrolo[1,2-b]pyridazin-7-yl)-4-(((1r,4R)-4-(1-cyclopropyl-1H-1,2,3-triazol-4-yl)cyclohexyl)amino)-N-((R)-2-fluoro-3-hydroxy-3-methylbutyl)nicotinamide] were 1 nM and 49 nM.
In the case of `CC(C)(O)[C@H](F)CNC(=O)c1cnc(-c2ccc3cc(C#N)cnn23)cc1N[C@H]1CC[C@H](n2cc(C3CC3)nn2)CC1` [Compound 32, 6-(3-cyanopyrrolo[1,2-b]pyridazin-7-yl)-4-(((1r,4R)-4-(4-cyclopropyl-1H-1,2,3-triazol-1-yl)cyclohexyl)amino)-N-((R)-2-fluoro-3-hydroxy-3-methylbutyl)nicotinamide], the IC50 in assay [1] worked out at 1 nM. In addition, the EC50 in assay [2] turned out to be 63 nM.
On to `CCn1cc([C@H]2CC[C@H](Nc3cc(-c4ccc5cc(C#N)cnn45)ncc3C(=O)NC[C@@H](F)C(C)(C)O)CC2)cn1` [Compound 12, 6-(3-cyanopyrrolo[1,2-b]pyridazin-7-yl)-4-(((1r,4R)-4-(1-ethyl-1H-pyrazol-4-yl)cyclohexyl)amino)-N-((R)-2-fluoro-3-hydroxy-3-methylbutyl)nicotinamide], for which the IC50 in assay [1] amounted to 2 nM. The EC50 in assay [2] is 44 nM.
